In general, solubility refers to the concentration that dissolves in the medium under given conditions. One may read the half-life as the time needed for the level to fall by half in the phase considered. The MIC is the smallest concentration in the dilution series that meets the test's criterion for growth inhibition.

The source of these data is patent US10577399B2, “Modified lantibiotics and methods of making and using the modified lantibiotics” (priority 2016, dated 2020).

≈ marks a conversion by molar mass, not a printed value. Entries after “also recorded” stand apart in the source; their conditions may differ. Bounds are passed on as bounds.

The subject of data set [1] is S. pneumoniae ATCC 27336. The data set is classed as cell-based, Streptococcus pneumoniae. Put shortly: (§1)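 Broth microdilution: antibiotic in 50% acetonitrile, 2-fold dilutions from 640 μg/mL stock down to 0.156 μg/mL, 10 μL per well plus 190 μL of ~10^5 CFU bacteria grown in THyex at 37 °C. MIC read as concentration preventing visible growth after 24 h.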
For data set [2], the system named is B. subtilis PY79 cells. Put plainly: Microscopy lipid II competition assay with fluorescein labeled nisin. The data set is classed as cell-based, Bacillus subtilis. The settings on record: pretreatment 10 μg/mL for 15 minutes. As to the method:
B. subtilis PY79 was grown and treated with fluorescein labeled peptide as previously described^39. A fresh plate of B. subtilis was used to inoculate THyex broth and incubated approximately 16 hours at 37° C. The culture was diluted 20-fold and placed back in the incubator for 3 hours at 37° C. Then, 100 μl of the culture was incubated with the antibiotic (10 μg/mL) for 15 minutes. The cells were pelleted and resuspended in 100 μl of phosphate buffer solution (PBS). The wash step was repeated three times before fixing with 1.6% formaldehyde in PBS. After fixation the cells were washed with PBS three more times and the remaining pellet was suspended in 50 μL of PBS. The sample (30 μL) was added to a slide and observed using an Olympus confocal microscope with a 100×/0.90 dry objective. A 488 nm argon laser was used to excite the fluorophore. For the competition assay, the bacterial culture was initially incubated with mu1140-COOH or native mutacin 1140 at a concentration of 10 μg/mL for 15 minutes, washed, and resuspended in fresh media. 10 μg/mL of fluorescein labeled nisin was then added for 15 minutes, before following the wash protocol previously stated.

The nature of data set [3]: Lipid II binding assay by thin layer chromatography. To be noted: 3:10 peptide:lipid II ratio. The method, then: Lipid II was a kind gift from Eefjan Breukink and was resuspended in a 1:1 Methanol:Chloroform solution. The lipid II binding assay using thin layer chromatography (TLC) was done as previously described^39. The mobile solvent consisted of consisted of butanol:acetic acid:water:pyridine (15:3:12:10 [vol/vol/vol/vol]). A 0.2 mM solution of mutacin 1140 or mu1140-COOH in 10 μL of solution A was mixed with lipid II (final […]) for 1 hour in a sealed glass vial. This corresponded to a ratio 3:10 peptide:lipid II ratio. All of the reaction mixtures and the appropriate controls were spotted (5 μL) 2 cm from the bottom of the plate. These spots define the origin of the plate. […] The mobile phase was allowed to climb up the plate until it reached a centimeter from the top. The plate was allowed to dry before staining with iodine.
With the loss of activity associated with a free carboxyl group in mu1140-COOH, the basis for the loss in activity was studied. The mechanism of action for class I lantibiotics has been determined to be due to lipid II binding^34-36. In particular, rings A and B are believed to form a cage-like structure around the pyrophosphate moiety of lipid II^37. The latter half of the peptide is predicted to enhance binding and recruit other lipid II-lantibiotic molecules into a large lipid II-lantibiotic complex^16. […]

Data set [4] has as its system M. luteus ATCC 10240. The format is cell-based, Micrococcus luteus. The essentials:
as §1

For data set [5], the system named is trypsin. The data set is described as follows: Trypsin stability screen with M. luteus overlay. The settings on record: 0.5 mg/mL trypsin, 37° C., 30 minutes. The format is in vitro ADME. The text has this:
Selective activity and stability of analogs: Several core peptide mutants are provided that have improved activity against our ATCC strain of S. pneumoniae. These core peptide mutants were also selected based on the absence of a dehydrated residue Dha/Dhb or the proteolytically susceptible arginine residue. […] Although the analog S5G had improved activity against S. pneumoniae ATCC 27336 compared to native mutacin and R13A, the S5G had less activity against all other tested strains of S. pneumoniae. […] 4) The R13A mutation prevents feedback inhibition of mutacin 1140 production, leading to a 100% increase in yield from the culture liquor. […] They are important for immunoregulation and blood coagulation. The observed increase in stability of the R13A analog will likely be advantageous in an animal model.

A short description of data set [6]: Solubility in saline. The data set is classed as physicochemical. The settings on record: saline solution.
Data set [7] can be described thus: Pharmacokinetics after intravenous dose in mice. The format is in vivo. The settings on record: mouse, iv, 2.5 mg/kg i. v., BALB/c mice, polynomial second order estimate. As to the method:
The compounds were dissolved in normal saline for all pharmacokinetic studies. An extraction protocol was developed in vitro by the addition of each compound to commercially bought BALB/c mouse serum. The compounds were extracted by the addition of 70% ACN containing 0.1% TFA/30% methanol containing 0.4% formic acid. The extract was then analyzed by LC-MS using a TSQ Vantage Triple Quad mass spectrometer. A standard curve was generated for each compound using known dilutions of the compounds in serum, which was then extracted. The R-squared values for each standard exceeded 0.98. BALB/c mice were used to evaluate pharmacokinetics of the compounds in vivo. A 2.5 mg/kg i. v. dose was evaluated for native mutacin, R13A, S5G, and double mutant S5A:T14G (FIG. 12A). A polynomial second order was used to estimate the peak plasma concentration and half-life of the R13A. […] Possibly, the Dhb14 residue may protect the peptide from trypsin-like proteases in the blood. […] Thus, taking the dynamics of cell death into account and the pharmacokinetics of the R13A, the R13A in serum is above the inhibitory concentration for S. pneumonia long enough to kill the pathogen.

As to `C=C1NC(=O)[C@H](Cc2c[nH]c3ccccc23)NC(=O)[C@H](NC(=O)[C@H](CCCCN)NC(=O)[C@@H](N)Cc2ccccc2)CSC[C@@H](C(=O)N[C@H]2C(=O)N3CCC[C@H]3C(=O)NCC(=O)N[C@H](C(=O)N[C@@H](C)C(=O)N[C@@H](CCCNC(=N)N)C(=O)N/C(=C\C)C(=O)NCC(=O)N[C@@H]3CSC[C@@H]4NC(=O)[C@H](Cc5ccc(O)cc5)NC(=O)[C@@H](CSC[C@@H](C(=O)O)NC4=O)NC(=O)[C@H](CC(N)=O)NC(=O)[C@H](Cc4ccccc4)NC3=O)CS[C@H]2C)NC(=O)[C@H](CC(C)C)NC1=O` [Mu1140 - COOH], in data set [1] (Table 7, S. pneumoniae ATCC 27336), the “MIC (μg/mL) S. pneumoniae” value is “greater than 64 μg/mL”. Further, in data set [1] (vs wild type mutacin 1140), the “reduction in activity (MIC, S. pneumoniae ATCC 27336)” value was greater than 128 fold. Also, the “binding of fluorescein labeled nisin after pretreatment of cells” value in data set [2] is “no typical in vivo fluorescence pattern was observed; also recorded: drastically reduces binding of fluorescein labeled nisin”. The “iodine stain at the origin of the TLC plate when mixed with lipid II” value in data set [3] is reported as “faint stain”. In addition, in data set [4] (Table 7, chemically modified analogs), the “MIC (μg/mL) M. luteus” value turned out to be 32 µg/mL (≈ 13.8 µM). For the same molecule, in data set [4] (vs wild type mutacin 1140), the “reduction in activity compared to wild type mutacin 1140 (MIC, M. luteus)” value is recorded as 256 fold.

Regarding `C=C1NC(=O)[C@H](Cc2c[nH]c3ccccc23)NC(=O)C(NC(=O)[C@H](CCCCN)NC(=O)[C@@H](N)Cc2ccccc2)CSC[C@@H](C(=O)NC2C(=O)N3CCC[C@H]3C(=O)NCC(=O)N[C@H](C(=O)N[C@@H](C)C(=O)N[C@@H](C)C(=O)NC(=CC)C(=O)NCC(=O)NC3CSC[C@@H]4NC(=O)[C@H](Cc5ccc(O)cc5)NC(=O)[C@@H](CS/C=C\NC4=O)NC(=O)[C@H](CC(N)=O)NC(=O)[C@H](Cc4ccccc4)NC3=O)CSC2C)NC(=O)[C@H](CC(C)C)NC1=O` (some centres unmarked) [Mutant R13A], the stability to trypsin result in data set [5] was “improved stability”. Moreover, the solubility in data set [6] is greater than 2000 µg/mL. Further, the half-life in data set [7] (in vivo, read-out: estimated half-life) is 1.17 h. Besides, the Cmax in data set [7] (plasma, read-out: peak plasma concentration) is 1700 ng/mL. In addition, the “MIC” value in data set [4] (Table 10, indicator strain Micrococcus luteus) came out at 0.0625 µg/mL (≈ 0.0287 µM).
